Experimental data published in PMC9154759 (2022).

Tested on: aptamer 1 (DNA, aptamer) GGGAGCTCAGAATAAACGCTCAATACTATCGCGGAGACAGCGCGGGAGGCACCGGGGAGATCCGGGCCTCATGTCGAA
Experiment: berberine fluorescence enhancement (ex 365 nm, em 530 nm)
Conditions: 37 °C, 30 min; 50 μg/mL berberine, 0-280 nM aptamer, plateau at 200 nM; binding buffer not stated

- binding: yes
SMILES: COc1ccc2cc3[n+](cc2c1OC)CCc1cc2c(cc1-3)OCO2
